In ChEMBL document CHEMBL4138123, “Design, synthesis and biological evaluation of novel pyrazolochalcones as potential modulators of PI3K/Akt/mTOR pathway and inducers of apoptosis in breast cancer cells” (Eur J Med Chem, 2017):

What was measured:
Format in all cases: functional
MOLT-4 = assay: Cytotoxicity against human MOLT4 cells assessed as growth inhibition after 48 hrs by sulforhodamine B assay; settings: MOLT-4, 48 h; for CC50: read-out: LC50 (the source's name)
HOP-62 [1] = assay: Cytotoxicity against human HOP62 cells assessed as growth inhibition after 48 hrs by sulforhodamine B assay; settings: HOP-62, 48 h
NCI-H226 = assay: Cytotoxicity against human NCI-H226 cells assessed as growth inhibition after 48 hrs by sulforhodamine B assay; settings: NCI-H226, 48 h
HT-29 = assay: Cytotoxicity against human HT-29 cells assessed as growth inhibition after 48 hrs by sulforhodamine B assay; settings: HT-29, 48 h
OVCAR-5 = assay: Cytotoxicity against human OVCAR5 cells assessed as growth inhibition after 48 hrs by sulforhodamine B assay; settings: OVCAR-5, 48 h
SK-OV-3 = assay: Cytotoxicity against human SKOV3 cells assessed as growth inhibition after 48 hrs by sulforhodamine B assay; settings: SK-OV-3, 48 h
A498 = assay: Cytotoxicity against human A498 cells assessed as growth inhibition after 48 hrs by sulforhodamine B assay; settings: A498, 48 h
MCF7 = assay: Cytotoxicity against human MCF7 cells assessed as growth inhibition after 48 hrs by sulforhodamine B assay; settings: MCF7, 48 h
IGROV-1 = assay: Cytotoxicity against human IGROV1 cells assessed as cell growth at 0.01 uM after 48 hrs by sulforhodamine B assay relative to control; settings: IGROV-1, 48 h, read-out: Activity
SF-539 [2] = assay: Cytotoxicity against human SF539 cells assessed as cell growth at 0.01 uM after 48 hrs by sulforhodamine B assay relative to control; settings: SF-539, 48 h, read-out: Activity
NCI-H23 = assay: Cytotoxicity against human NCI-H23 cells assessed as cell growth at 0.01 uM after 48 hrs by sulforhodamine B assay relative to control; settings: NCI-H23, 48 h, read-out: Activity
HOP-62 [3] = assay: Cytotoxicity against human HOP62 cells assessed as cell growth at 0.01 uM after 48 hrs by sulforhodamine B assay relative to control; settings: HOP-62, 48 h, read-out: Activity
SN12C = assay: Cytotoxicity against human SN12C cells assessed as cell growth at 0.01 uM after 48 hrs by sulforhodamine B assay relative to control; settings: read-out: Activity
CCRF-CEM = assay: Cytotoxicity against human CCRF-CEM cells assessed as cell growth at 0.1 uM after 48 hrs by sulforhodamine B assay relative to control; settings: read-out: Activity
NCI-H522 = assay: Cytotoxicity against human NCI-H522 cells assessed as cell growth at 0.1 uM after 48 hrs by sulforhodamine B assay relative to control; settings: NCI-H522, 48 h, read-out: Activity
KM12 = assay: Cytotoxicity against human KM12 cells assessed as cell growth at 0.1 uM after 48 hrs by sulforhodamine B assay relative to control; settings: KM12, 48 h, read-out: Activity
OVCAR-4 = assay: Cytotoxicity against human OVCAR4 cells assessed as cell growth at 0.1 uM after 48 hrs by sulforhodamine B assay relative to control; settings: OVCAR-4, 48 h, read-out: Activity
NCI/ADR-RES = assay: Cytotoxicity against human NCI/ADR-RES cells assessed as cell growth at 0.1 uM after 48 hrs by sulforhodamine B assay relative to control; settings: read-out: Activity
DU-145 [4] = assay: Cytotoxicity against human DU145 cells assessed as cell growth at 0.1 uM after 48 hrs by sulforhodamine B assay relative to control; settings: DU-145, 48 h, read-out: Activity
HL-60(TB) [5] = assay: Cytotoxicity against human HL-60(TB) cells assessed as cell growth at 1 uM after 48 hrs by sulforhodamine B assay relative to control; settings: HL-60, 48 h, read-out: Activity
HCC 2998 [6] = assay: Cytotoxicity against human HCC2998 cells assessed as cell growth at 1 uM after 48 hrs by sulforhodamine B assay relative to control; settings: HCC 2998, 48 h, read-out: Activity
HCT-116 = assay: Cytotoxicity against human HCT116 cells assessed as cell growth at 1 uM after 48 hrs by sulforhodamine B assay relative to control; settings: HCT-116, 48 h, read-out: Activity
DU-145 [7] = assay: Cytotoxicity against human DU145 cells assessed as cell growth at 1 uM after 48 hrs by sulforhodamine B assay relative to control; settings: DU-145, 48 h, read-out: Activity
BT-549 = assay: Cytotoxicity against human BT549 cells assessed as cell growth at 1 uM after 48 hrs by sulforhodamine B assay relative to control; settings: BT-549, 48 h, read-out: Activity
NCI-H460 [8] = assay: Cytotoxicity against human NCI-H460 cells assessed as cell growth at 10 uM after 48 hrs by sulforhodamine B assay relative to control; settings: NCI-H460, 48 h, read-out: Activity
HCC 2998 [9] = assay: Cytotoxicity against human HCC2998 cells assessed as cell growth at 10 uM after 48 hrs by sulforhodamine B assay relative to control; settings: HCC 2998, 48 h, read-out: Activity
HCT-15 = assay: Cytotoxicity against human HCT15 cells assessed as cell growth at 10 uM after 48 hrs by sulforhodamine B assay relative to control; settings: HCT-15, 48 h, read-out: Activity
SF-539 [10] = assay: Cytotoxicity against human SF539 cells assessed as cell growth at 10 uM after 48 hrs by sulforhodamine B assay relative to control; settings: SF-539, 48 h, read-out: Activity
ACHN [11] = assay: Cytotoxicity against human ACHN cells assessed as cell growth at 10 uM after 48 hrs by sulforhodamine B assay relative to control; settings: read-out: Activity
MDA-MB-231 = assay: Cytotoxicity against human MDA-MB-231 cells assessed as cell growth at 10 uM after 48 hrs by sulforhodamine B assay relative to control; settings: MDA-MB-231, 48 h, read-out: Activity
HL-60(TB) [12] = assay: Cytotoxicity against human HL-60(TB) cells assessed as cell growth at 100 uM after 48 hrs by sulforhodamine B assay relative to control; settings: HL-60, 48 h, read-out: Activity
HOP-62 [13] = assay: Cytotoxicity against human HOP62 cells assessed as cell growth at 100 uM after 48 hrs by sulforhodamine B assay relative to control; settings: HOP-62, 48 h, read-out: Activity
NCI-H460 [14] = assay: Cytotoxicity against human NCI-H460 cells assessed as cell growth at 100 uM after 48 hrs by sulforhodamine B assay relative to control; settings: NCI-H460, 48 h, read-out: Activity
SK-MEL-28 = assay: Cytotoxicity against human SK-MEL-28 cells assessed as cell growth at 100 uM after 48 hrs by sulforhodamine B assay relative to control; settings: SK-MEL-28, 48 h, read-out: Activity
ACHN [15] = assay: Cytotoxicity against human ACHN cells assessed as cell growth at 100 uM after 48 hrs by sulforhodamine B assay relative to control; settings: read-out: Activity
DU-145 [16] = assay: Cytotoxicity against human DU145 cells assessed as cell growth at 100 uM after 48 hrs by sulforhodamine B assay relative to control; settings: DU-145, 48 h, read-out: Activity

COc1cc(C(=O)/C=C/c2cc(-c3ccc4c(c3)OCO4)n[nH]2)cc(OC)c1OC
GI50 (MOLT-4): 2710 nM
TGI (MOLT-4): 8.36 µM
CC50 (MOLT-4): > 100 µM
GI50 (HOP-62 [1]): 2330 nM
LC50 (HOP-62 [1]): 24.5 µM
TGI (HOP-62 [1]): 6.24 µM
GI50 (NCI-H226): 1520 nM
LC50 (concentration killing 50% of cells) (NCI-H226): > 100 µM
TGI (NCI-H226): 4.25 µM
GI50 (HT-29): 2450 nM
LC50 (HT-29): > 100 µM
TGI (HT-29): 6.53 µM
GI50 (OVCAR-5): 2630 nM
LC50 (OVCAR-5): 76.8 µM
TGI (OVCAR-5): 9.6 µM
GI50 (SK-OV-3): 4.44 µM
LC50 (SK-OV-3): 38.8 µM
TGI (SK-OV-3): 14.6 µM
GI50 (A498): 1750 nM
LC50 (A498): 15.3 µM
TGI (A498): 4.65 µM
GI50 (MCF7): 1060 nM
LC50 (MCF7): 7.88 µM
TGI (MCF7): 2880 nM
growth at 0.01 µM (IGROV-1): 101%
growth at 0.01 µM (SF-539 [2]): 101%
growth at 0.01 µM (NCI-H23): 95%
growth at 0.01 µM (HOP-62 [3]): 100%
growth at 0.01 µM (SN12C): 98%
growth at 0.1 µM (CCRF-CEM): 98%
growth at 0.1 µM (NCI-H522): 90%
growth at 0.1 µM (KM12): 93%
growth at 0.1 µM (OVCAR-4): 94%
growth at 0.1 µM (NCI/ADR-RES): 98%
growth at 0.1 µM (DU-145 [4]): 99%
growth at 1 µM (HL-60(TB) [5]): 85%
growth at 1 µM (HCC 2998 [6]): 100%
growth at 1 µM (HCT-116): 86%
growth at 1 µM (DU-145 [7]): 97%
growth at 1 µM (BT-549): 89%
growth at 10 µM (NCI-H460 [8]): -67%
growth at 10 µM (HCC 2998 [9]): -64%
growth at 10 µM (HCT-15): -16%
growth at 10 µM (SF-539 [10]): -75%
growth at 10 µM (ACHN [11]): -43%
growth at 10 µM (MDA-MB-231): -22%
growth at 100 µM (HL-60(TB) [12]): -31%
growth at 100 µM (HOP-62 [13]): -91%
growth at 100 µM (NCI-H460 [14]): -78%
growth at 100 µM (SK-MEL-28): -96%
growth at 100 µM (ACHN [15]): -68%
growth at 100 µM (DU-145 [16]): -97%

COc1ccc(C(=O)/C=C/c2cc(-c3cc(OC)c(OC)c(OC)c3)n[nH]2)cc1
TGI (MOLT-4): 6.82 µM
CC50 (MOLT-4): > 100 µM
LC50 (HOP-62 [1]): 8.07 µM
TGI (HOP-62 [1]): 3.77 µM
TGI (NCI-H226): 4.07 µM
TGI (HT-29): 4.19 µM
LC50 (OVCAR-5): 7.6 µM
TGI (OVCAR-5): 3.78 µM
LC50 (SK-OV-3): > 100 µM
TGI (SK-OV-3): 20.5 µM
TGI (A498): 3.94 µM
LC50 (MCF7): 7.61 µM
TGI (MCF7): 2960 nM
growth at 0.01 µM (IGROV-1): 101%
growth at 0.01 µM (SF-539 [2]): 97%
growth at 0.01 µM (NCI-H23): 93%
growth at 0.01 µM (HOP-62 [3]): 99%
growth at 0.01 µM (SN12C): 99%
growth at 0.1 µM (CCRF-CEM): 98%
growth at 0.1 µM (NCI-H522): 87%
growth at 0.1 µM (KM12): 94%
growth at 0.1 µM (OVCAR-4): 94%
growth at 0.1 µM (NCI/ADR-RES): 97%
growth at 0.1 µM (DU-145 [4]): 101%
growth at 1 µM (HL-60(TB) [5]): 99%
growth at 1 µM (HCC 2998 [6]): 94%
growth at 1 µM (HCT-116): 72%
growth at 1 µM (DU-145 [7]): 76%
growth at 1 µM (BT-549): 93%
growth at 10 µM (NCI-H460 [8]): -63%
growth at 10 µM (HCC 2998 [9]): -83%
growth at 10 µM (HCT-15): -41%
growth at 10 µM (SF-539 [10]): -92%
growth at 10 µM (ACHN [11]): -83%
growth at 10 µM (MDA-MB-231): -33%
growth at 100 µM (HL-60(TB) [12]): -31%
growth at 100 µM (HOP-62 [13]): -79%
growth at 100 µM (NCI-H460 [14]): -62%
growth at 100 µM (SK-MEL-28): -87%
growth at 100 µM (ACHN [15]): -93%
growth at 100 µM (DU-145 [16]): -2%
